From US20250170082A1, “HPDL INHIBITORS AND USES THEREOF” (NEW YORK UNIVERSITY, priority 2022, published 2025)
“Also recorded” adds a separate entry of the source.

Tests used:
[1] = system: MIAPACA2 and PATU8902 xenografts; test: PDAC pancreas orthotopic xenografts in athymic nude mice; format: in vivo
Experimental: Pancreas orthotopic xenografts were established as follows. In brief, 6-week-old female immunocompromised athymic nude mice (CrTac:NCr-Foxnlnu) were orthotopically injected with tumor cells into the pancreas. Mice were anaesthetized with ketamine (120 mg kg−1) and xylazine (10 mg kg−1) before surgery. MIAPACA2 or PATU-8902 ([…]) were suspended in 20 μl of 50% growth factor-reduced Matrigel (BD Science), and injected into the pancreas. Mice were treated with buprenorphine every 12 h after surgery for 48 h. […] Both compounds were dissolved into mice water every day to avoid degradation. Mice were sacrificed when tumor development led to significant deterioration of their condition.

[2] = system: MIAPACA2 expressing control or HPDL sgRNA; test: 3D growth assay in MIAPACA2 expressing control or HPDL sgRNA, with or without coHPDL; format: cell-based; conditions: ibuprofen 100 uM added daily, 3 days
Experimental: This experiment evaluates if HPDL inhibition in cells is responsible for the decrease of cell growth in 3D. […] 2,500 cells were seeded into a low-attachment 96-well plate containing DMEM+10% dialysed FBS and 3% Matrigel. […] To measure 3D growth with the CyQUANT Cell Proliferation Assay kit, plates were frozen at −80° C., thawed at room temperature, and equal volumes of 2× CyQUANT reagent+lysis buffer was added to the wells. Wells containing medium and no cells were used as blanks.

[3] = system: MIAPACA2 and PATU-8902 cells; test: 3D growth assay (CyQUANT) in MIAPACA2 and PATU-8902 cells; format: cell-based; conditions: 3 days
Experimental: 2,500 cells were seeded into a low-attachment 96-well plate containing DMEM+10% dialysed FBS and 3% Matrigel. […] To measure 3D growth with the CyQUANT Cell Proliferation Assay kit, plates were frozen at −80° C., thawed at room temperature, and equal volumes of 2× CyQUANT reagent+lysis buffer was added to the wells. As a control, wells containing medium and no cells were used as blanks. CyQUANT measurements were performed as described in the manufacturer's instructions.
2,500 cells were seeded into a low-attachment 96-well plate containing DMEM+10% dialysed FBS and 3% Matrigel. […] To measure 3D growth with the CyQUANT Cell Proliferation Assay kit, plates were frozen at −80° C., thawed at room temperature, and equal volumes of 2×CyQUANT reagent+lysis buffer was added to the wells. Wells containing medium and no cells were used as blanks.

MIAPACA2 cells = test: 3D growth assay (CyQUANT) in MIAPACA2 cells, ibuprofen vs aspirin; format: cell-based; conditions: 100 uM added daily, 3 days
Experimental: This experiment evaluates if COX inhibition is responsible for the decrease of cell growth in 3D. The ability of aspirin, another COX inhibitor, to affect cell growth of HPDL-dependent cell lines in 3D was evaluated. 2,500 cells were seeded into a low-attachment 96-well plate containing DMEM+10% dialysed FBS and 3% Matrigel. […] To measure 3D growth with the CyQUANT Cell Proliferation Assay kit, plates were frozen at −80° C., thawed at room temperature, and equal volumes of 2× CyQUANT reagent+lysis buffer was added to the wells. Wells containing medium and no cells were used as blanks.

C57BL/6 pups = test: Pup survival after daily oral gavage; format: in vivo
His-tagged HPDL = molecular target: T1, His-tagged HPDL (Homo sapiens, UniProt Q96IR7); conditions: for compound amount at 50% activity level (rank among the four dose-response curves): FIG. 4(A) dose-response curves
T1 sequence (Q96IR7 1-371): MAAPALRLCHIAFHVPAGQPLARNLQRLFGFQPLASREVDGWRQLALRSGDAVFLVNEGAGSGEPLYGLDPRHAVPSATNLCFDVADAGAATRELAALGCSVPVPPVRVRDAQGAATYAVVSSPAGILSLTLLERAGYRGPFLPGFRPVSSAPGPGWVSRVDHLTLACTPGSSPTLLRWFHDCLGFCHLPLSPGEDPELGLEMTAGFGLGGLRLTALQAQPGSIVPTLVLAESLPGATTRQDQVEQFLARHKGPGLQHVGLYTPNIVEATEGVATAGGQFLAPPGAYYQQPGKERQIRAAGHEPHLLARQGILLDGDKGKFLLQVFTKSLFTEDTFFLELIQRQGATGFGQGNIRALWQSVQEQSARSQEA

[4] = molecular target: T2, human His-tagged HPDL (4-hydroxyphenylpyruvate dioxygenase-like), recombinant, from expiSF9 insect cells (Homo sapiens, UniProt Q96IR7); test: Inhibition of HPDL activity: His-tagged HPDL incubated with HPPA at various inhibitor concentrations, 4HMA production followed by GC-MS; format: biochemical
T2 construct: His tag; made in house; host or cells: expiSF9 insect cells (virus infection)
T2 sequence (Q96IR7 1-371): T1 sequence (Q96IR7 1-371)
Source text: The four curves in Panel (A) represent dose-response curves for, from left to right, ibuprofen, dopamine, montelukast, and methyldopa, respectively.
A culture of expiSF9 cells (5×10^6 viable cells/mL and ≥90% viability) were infected with high-titer virus (human His-tagged HPDL).

HPDL = molecular target: T3, HPDL (Homo sapiens, UniProt Q96IR7); test: Fluorescence based thermal shift assay (FTS) on purified HPDL; format: binding; conditions: 10 μM compound, 1 μM HPDL
T3 construct: His tag; made in house; host or cells: expiSF9 insect cells (inferred: the only HPDL preparation described)
T3 sequence (Q96IR7 1-371): T1 sequence (Q96IR7 1-371)
Experimental: This experiment evaluates an FDA approved library of small molecules by thermal shift in order to identify binders of HPDL. Fluorescence based thermal shift assay (FTS) was conducted on Bio-Rad real time PCR detection system. A total of 20 μL/well solution was prepared containing 1 μM HPDL, 2× fluorescent dye (Applied Biosystems, Life Technologies) and small molecules at […] concentration in buffer (50 mM HEPES pH 7.5 and 20 μM FeSO4). The plate was heated at 1% of ramp rate (−1.5° C./min) from 25 to 95° C., and Rox was selected as reporter for detection of fluorescence intensity. The melting temperature was recorded for every compound and compared to the reference HPDL melting temperature.
This experiment evaluates if COX inhibition is responsible for the decrease of cell growth in 3D. The ability of aspirin, another COX inhibitor, to bind HPDL was evaluated using thermal shift assay. Fluorescence based thermal shift assay (FTS) was conducted on Bio-Rad real time PCR detection system. […] The plate was heated at 1% of ramp rate (˜1.5° C./min) from 25 to 95° C., and Rox was selected as reporter for detection of fluorescence intensity. The melting temperature was recorded for every compound and compared to the reference HPDL melting temperature.

cells = test: Cellular uptake of 4-HMA and incorporation into CoQ10; format: cell-based

CC(C)Cc1ccc(C(C)C(=O)O)cc1 (stereo not drawn) [ibuprofen]
orthotopic pancreatic tumor growth (tumor weight) ([1]; ibuprofen 100 mg/kg in drinking water): affects the growth of HPDL-dependent PDAC orthotopic xenografts
sensitivity of 3D growth to ibuprofen on HPDL deletion [2]: HPDL deletion reduces sensitivity to ibuprofen treatment in 3D
3D cell growth ([3]; ibuprofen 100 uM added daily): selectively decreases cell growth of HPDL-dependent cell lines in 3D
3D cell growth (MIAPACA2 cells): affects cell growth of HPDL-dependent cell lines in 3D
pup development and survival (C57BL/6 pups; ibuprofen 200 mg/kg daily oral gavage, started at 3, 5 and 10 days): affects the development of pups; also recorded: ibuprofen-induced lethality in pups
compound amount at 50% activity level (rank among the four dose-response curves) (His-tagged HPDL): least

NCCc1ccc(O)c(O)c1 [D00005 row 2, dopamine]
IC50 [4]: 41.3 µM

CC(=O)Oc1ccccc1C(=O)O [aspirin]
HPDL binding by thermal shift (HPDL): does not act HPDL binder
3D cell growth (MIAPACA2 cells): does not affect cell growth of HPDL-dependent cell lines

CC(C)Cc1ccc(C(C)C(=O)O)cc1 (stereo not drawn) [D00005 row 4, ibuprofen]
IC50 [4]: 16.6 µM

O=C(O)C(O)c1ccc(O)cc1 (stereo not drawn) [4HMA, 4-hydroxymandelate]
rescue of ibuprofen-induced decrease of xenograft growth ([1]; 4HMA 10 mg/kg with ibuprofen 100 mg/kg in drinking water): can rescue this decrease
rescue of ibuprofen-induced decrease of 3D cell growth ([3]; ibuprofen 100 uM and 4HMA 1 mM added daily): rescues ibuprofen-induced decreases cell growth in 3D
uptake by cells and incorporation into CoQ10 (cells): readily taken up by cells and incorporated into CoQ10
rescue of ibuprofen-induced lethality (C57BL/6 pups; 4HMA 10 mg/kg with ibuprofen 200 mg/kg daily oral gavage): rescues ibuprofen-induced lethality in pups

CC(C)(O)c1ccccc1CC[C@@H](SCC1(CC(=O)O)CC1)c1cccc(/C=C/c2ccc3ccc(Cl)cc3n2)c1 [D00005 row 1, montelukast]
IC50 [4]: > 100 µM

C[C@](N)(Cc1ccc(O)c(O)c1)C(=O)O [D00005 row 3, methyldopa]
IC50 [4]: > 100 µM

NCCc1ccc(O)c(O)c1 [dopamine]
inhibition of HPDL activity (His-tagged HPDL; 12 ng/μL HPDL, 10 μM HPPA, 1 h at 37° C., various inhibitor concentrations): inhibit the dioxygenase HPDL
compound amount at 50% activity level (rank among the four dose-response curves) (His-tagged HPDL): second least
